Measurements: paper PMC3402541, “Guanidylation and Tail Effects in Cationic Antimicrobial Lipopeptoids” (PLoS ONE, 2012)
Where a SMILES comes first, the peptide text is derived from it. [ ]: non-standard residue; d: D form. The star is where a group is joined. Undecanoyl = CCCCCCCCCCC(=O)*; Nlys = NCCCCNCC(=O)O

Experiments:
S.aureus ATCC 29213 = type: cell-based, Staphylococcus aureus; details: ATCC 29213, 24 h
Method in brief: (§1)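 CLSI macrobroth dilution with doubling dilutions in cation-adjusted Mueller-Hinton broth in glass tubes, inoculum about 5 × 10^5 CFU/mL. Incubation 24 hr at 37°C in ambient air before MIC reading. Single determinations, no replication.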

MRSA ATCC 33592 = type: cell-based, methicillin-resistant S. aureus; details: ATCC 33592, 24 h
Method in brief: as §1

MSSE 81388 CANWARD 2008 = type: cell-based, methicillin-susceptible S. epidermidis; details: 24 h
Method in brief: as §1

MRSE CAN-ICU 61589 = type: cell-based, methicillin-resistant S. epidermidis; details: CAN-ICU 61589, 24 h
Method in brief: as §1

E. faecalis ATCC 29212 = type: cell-based, Enterococcus faecalis; details: ATCC 29212, 24 h
Method in brief: as §1

S.pneumoniae ATCC 49619 = type: cell-based, Streptococcus pneumoniae; details: ATCC 49619, 24 h
Method in brief: as §1

P.aeruginosa ATCC 27853 = type: cell-based, Pseudomonas aeruginosa; details: ATCC 27853, 24 h
Method in brief: as §1

[1] = tested on: P.aeruginosa CAN-ICU 62308; type: cell-based, Pseudomonas aeruginosa; details: CAN-ICU 62308, 24 h
Method in brief: as §1

[2] = tested on: S. maltophilia CAN-ICU 62584; type: cell-based, Stenotrophomonas maltophilia; details: CAN-ICU 62584, 24 h
Method in brief: as §1

[3] = tested on: A. baumannii CAN-ICU 63169; type: cell-based, Acinetobacter baumannii; details: CAN-ICU 63169, 24 h
Method in brief: as §1

K.pneumoniae ATCC 13883 = type: cell-based, Klebsiella pneumoniae; details: ATCC 13883, 24 h
Method in brief: as §1

ovine erythrocytes = test: Haemolytic assay; type: cell-based, sheep; details: ovine erythrocytes in Tris buffered saline, 30 minutes, absorbance of supernatant at 540 nm
Method in brief: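 Washed sheep erythrocytes in Tris-buffered saline exposed to compound (50 μg/mL–1 mg/mL; final 4.08 x 10^8 cells/mL) for 30 min. After centrifugation, supernatant absorbance at 540 nm gave % haemolysis; 0.5% ammonium chloride as positive control.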

E.coli ATCC 25922 = type: cell-based, Escherichia coli; details: ATCC 25922, 24 h
Method in brief: as §1

E.coli CAN-ICU 61714 = type: cell-based, Escherichia coli; details: CAN-ICU 61714, 24 h
Method in brief: as §1

E.coli CAN-ICU 63074 = type: cell-based, Escherichia coli; details: CAN-ICU 63074, 24 h
Method in brief: as §1

E. faecium ATCC 27270 = type: cell-based; details: ATCC 27270, 24 h
Method in brief: as §1

[4] = tested on: panel of clinically relevant and laboratory reference bacteria; test: Antimicrobial activity over the whole bacterial panel; type: cell-based; details: Gram positive and Gram negative strains, no BSA
Experimental: Antimicrobial activity of the purified lipopeptoids was determined without replication against a panel of clinically relevant and standard reference bacterial strains according to CLSI macrobroth standards. Stock solutions at 512 µg/mL were prepared in water, with DMSO as needed, and testing was performed in glass test tubes using Muller-Hinton broth and bacteria adjusted to 5 × 10^5 CFU/mL. Bacteria were incubated with the lipopeptoid of interest for 24 hr at 37°C prior to reading. […]
After subculturing the relevant bacteria twice from frozen stock, in vitro activities of the antimicrobials were determined by macrobroth dilution methodology in accordance with the Clinical and Laboratory Standards Institute (CLSI) guidelines (3). The MICs were determined using glass test tubes (2 mL/tube) containing doubling antimicrobial dilutions of cation adjusted Mueller-Hinton broth inoculated to achieve a final concentration of approximately 5 x 10^5 CFU/mL, incubated in ambient air for 24 hr prior to reading. […]

CCCCCCCCCCC(=O)N(CCCCN)CC(=O)N(CCCCN)CC(=O)N(CCCCN)CC(N)=O [C11-NlysNlysNlys]
0.67%: Percent haemolysis at 100µg/mL of compound (ovine erythrocytes)
broadly inactive: Antimicrobial activity over the panel (in words) [4]
256 µg/mL: MIC E. faecium (E. faecium ATCC 27270)
512 µg/mL: MIC S.aureus (S.aureus ATCC 29213) | MIC MRSA (MRSA ATCC 33592) | MIC MSSE (MSSE 81388 CANWARD 2008) | MIC MSSE in the presence of 4% bovine serum albumin (MSSE 81388 CANWARD 2008) | MIC MRSE (MRSE CAN-ICU 61589) | MIC MRSE in the presence of 4% bovine serum albumin (MRSE CAN-ICU 61589) | MIC E. faecalis (E. faecalis ATCC 29212) | MIC E. faecium in the presence of 4% bovine serum albumin (E. faecium ATCC 27270)
>512 µg/mL: MIC S.aureus in the presence of 4% bovine serum albumin (S.aureus ATCC 29213) | MIC MRSA in the presence of 4% bovine serum albumin (MRSA ATCC 33592) | MIC E. faecalis in the presence of 4% bovine serum albumin (E. faecalis ATCC 29212) | MIC S.pneumoniae (S.pneumoniae ATCC 49619) | MIC S.pneumoniae in the presence of 4% bovine serum albumin (S.pneumoniae ATCC 49619) | MIC P.aeruginosa (P.aeruginosa ATCC 27853) | MIC P.aeruginosa in the presence of 4% bovine serum albumin (P.aeruginosa ATCC 27853) | MIC P.aeruginosa [1] | MIC P.aeruginosa in the presence of 4% bovine serum albumin [1] | MIC S. maltophilia [2] | MIC S. maltophilia in the presence of 4% bovine serum albumin [2] | MIC A. baumannii [3] | MIC A. baumannii in the presence of 4% bovine serum albumin [3] | MIC K.pneumoniae (K.pneumoniae ATCC 13883) | MIC K.pneumoniae in the presence of 4% bovine serum albumin (K.pneumoniae ATCC 13883) | MIC E.coli (E.coli ATCC 25922) | MIC E.coli in the presence of 4% bovine serum albumin (E.coli ATCC 25922) | MIC E.coli (E.coli CAN-ICU 61714) | MIC E.coli in the presence of 4% bovine serum albumin (E.coli CAN-ICU 61714) | MIC E.coli (E.coli CAN-ICU 63074) | MIC E.coli in the presence of 4% bovine serum albumin (E.coli CAN-ICU 63074)

CCCCCCCCCCCCCCCC(=O)N(CCCCNC(=N)N)CC(=O)N(CCCCNC(=N)N)CC(=O)N(CCCCNC(=N)N)CC(N)=O [C16-NhargNhargNharg]
128 µg/mL: MIC S. maltophilia [2] | MIC A. baumannii [3]
>512 µg/mL: MIC P.aeruginosa in the presence of 4% bovine serum albumin (P.aeruginosa ATCC 27853) | MIC P.aeruginosa in the presence of 4% bovine serum albumin [1] | MIC S. maltophilia in the presence of 4% bovine serum albumin [2] | MIC A. baumannii in the presence of 4% bovine serum albumin [3] | MIC K.pneumoniae in the presence of 4% bovine serum albumin (K.pneumoniae ATCC 13883) | MIC E.coli in the presence of 4% bovine serum albumin (E.coli CAN-ICU 63074)
32 µg/mL: MIC E.coli (E.coli CAN-ICU 61714) | MIC E.coli (E.coli CAN-ICU 63074)
512 µg/mL: MIC S.aureus in the presence of 4% bovine serum albumin (S.aureus ATCC 29213) | MIC MRSA in the presence of 4% bovine serum albumin (MRSA ATCC 33592) | MIC MRSE in the presence of 4% bovine serum albumin (MRSE CAN-ICU 61589) | MIC E. faecalis in the presence of 4% bovine serum albumin (E. faecalis ATCC 29212) | MIC E.coli in the presence of 4% bovine serum albumin (E.coli ATCC 25922) | MIC E.coli in the presence of 4% bovine serum albumin (E.coli CAN-ICU 61714) | MIC E. faecium in the presence of 4% bovine serum albumin (E. faecium ATCC 27270)
256 µg/mL: MIC MSSE in the presence of 4% bovine serum albumin (MSSE 81388 CANWARD 2008) | MIC K.pneumoniae (K.pneumoniae ATCC 13883)
64 µg/mL: MIC S.pneumoniae (S.pneumoniae ATCC 49619) | MIC P.aeruginosa (P.aeruginosa ATCC 27853) | MIC P.aeruginosa [1]
16 µg/mL: MIC MRSA (MRSA ATCC 33592) | MIC E. faecalis (E. faecalis ATCC 29212) | MIC E.coli (E.coli ATCC 25922) | MIC E. faecium (E. faecium ATCC 27270)
8 µg/mL: MIC S.aureus (S.aureus ATCC 29213) | MIC MSSE (MSSE 81388 CANWARD 2008) | MIC MRSE (MRSE CAN-ICU 61589)
30.80%: Percent haemolysis at 100µg/mL of compound (ovine erythrocytes)

CCCCCCCCCCC(=O)N(CCCCN)CC(=O)NCC(=O)N(CCCCN)CC(N)=O [C11-NlysGNlys] (Undecanoyl-[Nlys]-Gly-[Nlys]-NH2)
1.34%: Percent haemolysis at 100µg/mL of compound (ovine erythrocytes)
256 µg/mL: MIC MSSE (MSSE 81388 CANWARD 2008) | MIC MRSE (MRSE CAN-ICU 61589)
broadly inactive: Antimicrobial activity over the panel (in words) [4]
>512 µg/mL: MIC S.aureus in the presence of 4% bovine serum albumin (S.aureus ATCC 29213) | MIC MRSA in the presence of 4% bovine serum albumin (MRSA ATCC 33592) | MIC E. faecalis in the presence of 4% bovine serum albumin (E. faecalis ATCC 29212) | MIC P.aeruginosa (P.aeruginosa ATCC 27853) | MIC P.aeruginosa in the presence of 4% bovine serum albumin (P.aeruginosa ATCC 27853) | MIC P.aeruginosa [1] | MIC P.aeruginosa in the presence of 4% bovine serum albumin [1] | MIC S. maltophilia [2] | MIC S. maltophilia in the presence of 4% bovine serum albumin [2] | MIC A. baumannii [3] | MIC A. baumannii in the presence of 4% bovine serum albumin [3] | MIC K.pneumoniae (K.pneumoniae ATCC 13883) | MIC K.pneumoniae in the presence of 4% bovine serum albumin (K.pneumoniae ATCC 13883) | MIC E.coli (E.coli ATCC 25922) | MIC E.coli in the presence of 4% bovine serum albumin (E.coli ATCC 25922) | MIC E.coli (E.coli CAN-ICU 61714) | MIC E.coli in the presence of 4% bovine serum albumin (E.coli CAN-ICU 61714) | MIC E.coli (E.coli CAN-ICU 63074) | MIC E.coli in the presence of 4% bovine serum albumin (E.coli CAN-ICU 63074) | MIC E. faecium in the presence of 4% bovine serum albumin (E. faecium ATCC 27270)
512 µg/mL: MIC S.aureus (S.aureus ATCC 29213) | MIC MRSA (MRSA ATCC 33592) | MIC MSSE in the presence of 4% bovine serum albumin (MSSE 81388 CANWARD 2008) | MIC MRSE in the presence of 4% bovine serum albumin (MRSE CAN-ICU 61589) | MIC E. faecalis (E. faecalis ATCC 29212) | MIC S.pneumoniae (S.pneumoniae ATCC 49619) | MIC S.pneumoniae in the presence of 4% bovine serum albumin (S.pneumoniae ATCC 49619) | MIC E. faecium (E. faecium ATCC 27270)
